Source text: A test tank with a capacity of approximately 1100 liters was fitted with a HAYWARD® sand filter. The filter was approximately 0.09 square meters and contained approximately 18 kg of coarse sand. An identical tank was fitted with a HAYWARD ® cartridge filter, as is typically used with swimming pools. […] Water is then drawn through the filters using a pump. Each unit was fitted with necessary plumbing to permit test samples of reactant to be added upstream of the filter, to simulate adding the reactant to the skimmer in a full-sized pool. In this way, the reactant could be drawn through the plumbing and into or onto the filter. In this test orthophosphate, in the form of Na2HPO4, was used to simulate the increased phosphate level present in the water.
This suspension was added upstream of the filter, thus it was drawn toward and into the filter.

## O=S(=O)([O-])[O-].O=S(=O)([O-])[O-].O=S(=O)([O-])[O-].[La+3].[La+3] [La2(SO4)3, lanthanum sulfate]
Commercial grade (approximately 99.5% purity), 0.8 g Na2HPO4 added, otherwise as Example 1
  ratio of PO4 recovered to La added: 0.35
Reagent grade (99.9% pure), 3.5 g in 50 ml tap water added upstream of filter, 1135 L, approx. 800 ppb phosphate, after 2 hours pumping at approx. 75 L/min
  PO4 removed: 0.65 g
Reagent grade (99.9% pure), 3.5 g, after 2 hours
  ratio of PO4 to La observed in the experiment: 0.38

From US6338800B1, “Methods and compositions using lanthanum for removing phosphates from water” (Natural Chemistry, Inc., priority 2000, dated 2002)
